Experimental data as given in patent US20200360455A1 (priority 2018, published 2020).

Tested on: Old mice
Experiment: Wire hang test
Format: in vivo, mouse
Conditions: creatine 120 mg/kg
Protocol: The test was performing using a wire having a diameter of 2 mm installed at a height of 25 cm. Each mouse was placed on the wire using only the front legs, and the time of hanging without falling was measured. The time when the mouse was suspended and then dropped was measured and the test was conducted for a maximum of 120 seconds. In this way, each mouse was repeated 3 times at approximately 20 minute intervals. The results of each mouse were analyzed for the average value of the first and longest hanging time in three trials. […] In addition, creatine 120 mg/kg (creatine-120) was administered to mice as a positive control, and the test was conducted under the same conditions.

For `CN(CC(=O)O)C(=N)N` [creatine], the “wire hang effect of positive control vs aging mouse group” value was “more effective than the aging mouse group”.
